Laboratory results: US20250099431A1, “GLP-1R MODULATING COMPOUNDS” (priority 2020, published 2025)
Where two headings read alike, the source gives them in different places.

Tests used:
[1] = Microsomal stability (liver microsomal assay, mixed cofactors); predicted hepatic clearance; assay type: in vitro ADME; details: liver microsomes 1.0 mg protein/mL (+UDPGA +NADPH), 1 μM analyte, 37° C.; scaled with human liver weight and hepatic blood flow 1.3 L/hr/kg
How it was run: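 Compound at 1 μM with human or rat pooled liver microsomes, alamethicin-treated, pH 7.4 phosphate, NADPH-regenerating plus UDPGA cofactors, 37° C, sampled 0–70 min. Parent/internal standard ratio by RapidFire QToF MS; half-life from initial log-linear decay, scaled to intrinsic and predicted hepatic clearance and hepatic extraction.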

[2] = target: GLP-1R (Homo sapiens (Human), UniProt P43220); test: GLP-1R activation: cAMP increase in CHO cells stably expressing GLP-1R; assay type: cell-based; details: 10 point dose response, 30 minutes incubation at 37° C.
How it was run: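 CHO cells stably expressing GLP-1R were incubated 1 h at 37 °C in medium with 1% BSA, then exposed to compound in a 10-point dose response for 30 min at 37 °C. cAMP rise was detected by HTRF (Gs Dynamic kit). EC50 came from a sigmoidal fit of response against log agonist concentration.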

GLP-1R, sequence (P43220 24-463): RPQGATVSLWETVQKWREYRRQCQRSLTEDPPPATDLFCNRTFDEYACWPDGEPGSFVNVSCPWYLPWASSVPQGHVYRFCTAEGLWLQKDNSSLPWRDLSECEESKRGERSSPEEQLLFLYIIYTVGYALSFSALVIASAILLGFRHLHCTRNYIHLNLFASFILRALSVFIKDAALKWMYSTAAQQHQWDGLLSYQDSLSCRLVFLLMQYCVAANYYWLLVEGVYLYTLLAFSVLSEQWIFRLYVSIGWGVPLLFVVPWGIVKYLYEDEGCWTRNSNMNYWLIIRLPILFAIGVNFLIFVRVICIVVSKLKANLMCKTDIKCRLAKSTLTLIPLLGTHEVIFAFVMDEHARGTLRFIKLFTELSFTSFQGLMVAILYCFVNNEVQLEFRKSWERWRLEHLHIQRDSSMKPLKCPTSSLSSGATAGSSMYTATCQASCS

| SMILES | Predicted Hepatic Clearance (Pred. Cl.) [1] | EC50 ([2]; cAMP increase, read-out: EC50) | EC50 ([2]; EC50, cAMP increase) |
| --- | --- | --- | --- |
| COCCn1c(Cc2c(F)cc(-c3cccc4c3OC3(c5ccc(Cl)cc5)CCCN43)cc2F)nc2ccc(C(=O)O)cc21 (stereo not shown) [Example 16, 2-(4-(3a-(4-chlorophenyl)-1,2,3,3a-tetrahydrobenzo[d]pyrrolo[2,1-b]oxazol-5-yl)-2,6-difluorobenzyl)-1-(2-methoxyethyl)-1H-benzo[d]imidazole-6-carboxylic acid] | 9 mL/min/kg | 6920 nM |  |
| CC1(c2ccc(Cl)cc2F)Oc2cccc(-c3cc(F)c(Cc4nc5ccc(C(=O)O)cc5n4C[C@@H]4CCO4)c(F)c3)c2O1 (single isomer, unassigned) [Example 48] | 2 mL/min/kg |  | 1.2 nM |
| COCCn1c(Cc2ccc(-c3cccc4c3OC(C)(c3ccc(Cl)cc3F)O4)nc2OC)nc2ccc(C(=O)O)cc21 (stereo not shown) [Example 85, 2-((6-(2-(4-chloro-2-fluorophenyl)-2-methylbenzo[d][1, 3]dioxol-4-yl)-2-methoxypyridin-3-yl)methyl)-1-(2-methoxyethyl)-1H-benzo[d]imidazole-6-carboxylic acid] | 3 mL/min/kg | 168 nM |  |

The next lines start with results.

| Predicted Hepatic Clearance (Pred. Cl.) [1] | EC50 ([2]; cAMP increase, read-out: EC50) | SMILES | EC50 ([2]; EC50, cAMP increase) |
| --- | --- | --- | --- |
| 3.83 mL/min/kg | 0.69 nM | CC1(c2ccc(C#N)cc2F)Oc2cccc(-c3cc(F)c(Cc4nc5ccc(C(=O)O)cc5n4C[C@@H]4CCO4)c(F)c3)c2O1 (stereo partly drawn) [Example 91, 2-(4-(2-(4-cyano-2-fluorophenyl)-2-methylbenzo[d][1, 3]dioxol-4-yl)-2,6-difluorobenzyl)-1-(((S)-oxetan-2-yl)methyl)-1H-benzo[d]imidazole-6-carboxylic acid] |  |
| 9.17 mL/min/kg | 347 nM | COCCn1c(Cc2c(F)cc(-c3cccc4c3OC3(CCCCc5cc(Cl)ccc53)O4)cc2F)nc2ccc(C(=O)O)cc21 (stereo not shown) [Example 57, 2-(4-(2′-chloro-6′,7′,8′,9′-tetrahydrospiro[benzo [d][1,3]dioxole-2,5′-benzo[7]annulen]-4-yl)-2,6-difluorobenzyl)-1-(2-methoxyethyl)-1H-benzo[d]imidazole-6-carboxylic acid] |  |
